Laboratory results taken from US20260250337A1, “HYBRID ANTIMICROBIAL PEPTIDES” (UNIVERSIDADE FEDERAL DO ABC, priority 2023, published 2026).
No end group written: not given here.

Legend:
P. aeruginosa = assay: MIC against P. aeruginosa; type: cell-based; conditions: strain not given
Procedure: (§1) Method. The minimal inhibitory concentration (MIC) against the ESKAPE pathogens was determined using the broth microdilution method^81, 82 in Luria-Bertani (LB) medium. The MIC value was defined as the lowest concentration of peptide at which no microbial growth was observed. A. baumannii ATCC19606, E. coli ATCC11775, E. coli AIC221, E. coli AIC222, K. pneumoniae ATCC13883, S. aureus ATCC12600 P. aeruginosa PAO1, and P. aeruginosa PA14 were incubated on agar plates, and after 24 h, three isolated colonies were inoculated to 5 mL of Luria-Bertani (LB) broth and maintained at 37° C. overnight with shaking. Peptides were then added to 96-well polystyrene microtiter plates at concentrations ranging from 0 to 128 μmol L^−1, and 5×10^5 CFU mL^−1 of each bacterium was inoculated in each well. The plates were incubated at 37° C. for 24 h. Bacterial growth was measured using a microplate reader at 610 nm. Three independent replicates were performed.

bacterial strains = assay: Antimicrobial activity over the panel of strains; type: cell-based; conditions: range over strains tested
Procedure: Initially, the antimicrobial activity was determined by liquid growth inhibition assays, as previously described by Pedron et al.^62. Briefly, Peptone Broth and Potato Dextrose Broth (Invitrogen) were used for antibacterial and antifungal assays, respectively. Two-fold serial dilutions of peptides (0.09-50 μmol L^−1) and microorganisms (Serratia marcescens ATCC 4112, Enterobacter cloacae β-12, Micrococcus luteus A270, Bacillus megaterium ATCC 10778, Bacillus subtilis ATCC 6633, Candida albicans MDM8, and Candida tropicalis IOC 4560) were incubated at 37° C. for 18 h (for bacteria) or 24 h (for fungi), and microbial growth was assessed by absorbance measurements at 595 nm. Experiments were performed in three biological repeats.
as §1

Substance: ILGAILNVLKSLG-NH2 [PV, Ile-Leu-Gly-Ala-Ile-Leu-Asn-Val-Leu-Lys-Ser-Leu-Gly]
- MIC against P. aeruginosa (P. aeruginosa): 128 µM
- MIC range of the peptide over the strains (bacterial strains): 3.1 to 64 µM
